Holding throughout (assay type): cell-based
For experiment [1], the system named is 4th stage larvae (L4) of Dirofilaria immitis. The experiment can be described thus: Dirofilaria immitis, L4 Stage (DiL4) In Vitro Assay. The settings on record: Dirofilaria immitis, 72 h, read-out: DiL4 Minimum Effective Dose (MED), approximately 72 hours incubation; L4 larvae assessed for survival or paralysis.
Experiment [2] deals with microfilariae of Dirofilaria immitis. Briefly: Dirofilaria immitis, Microfilaria (DiMF) In vitro Assay. Particulars: 72 h, read-out: DiMF Minimum Effective Dose (MED), approximately 72 hours incubation, microfilariae assessed for survival or paralysis.
The subject of experiment [3] is third stage larvae of Haemonchus contortus. The experiment can be described thus: Haemonchus contortus L3 (HcL3) Assay. Particulars: 96 h, read-out: HcL3 Minimum Effective Dose (MED).

Minimal effective concentration data for 13 molecules are collected here from US11331369B2, “Endoparasitic depsipeptides” (Zoetis Services LLC, priority 2017, dated 2022).

Turning to `CC(C)C[C@H]1C(=O)O[C@H](Cc2ccc(Cn3nccc3C3CCCC3)cc2)C(=O)N(C)[C@@H](CC(C)C)C(=O)O[C@H](C)C(=O)N(C)[C@@H](CC(C)C)C(=O)O[C@H](Cc2ccc(Cn3ccc(C4CCCC4)n3)cc2)C(=O)N(C)[C@@H](CC(C)C)C(=O)O[C@H](C)C(=O)N1C` [Example 1a-34, (3S,6R,9S,12R,15S,18R,21S,24R)-6-(4-((3-cyclopentyl-1H-pyrazol-1-yl)methyl)benzyl)-18-(4-((5-cyclopentyl-1H-pyrazol-1-yl)methyl)benzyl)-3,9,15,21-tetraisobutyl-4,10,12,16,22,24-hexamethyl-1,7,13,19-tetraoxa-4,10,16,22-tetraazacyclotetracosan-2,5,8,11,14,17,20,23-octaone], in experiment [1], the minimal effective concentration lay within 0.001 to 0.01 µM.
Regarding `Cc1nn(Cc2ccc(C[C@H]3OC(=O)[C@H](CC(C)C)N(C)C(=O)[C@@H](C)OC(=O)[C@H](CC(C)C)N(C)C(=O)[C@@H](Cc4ccc(Cn5nc(C)c(Cl)c5C)cc4)OC(=O)[C@H](CC(C)C)N(C)C(=O)[C@@H](C)OC(=O)[C@H](CC(C)C)N(C)C3=O)cc2)c(C)c1Cl` [Example 1b-51, (3S,6R,9S,12R,15S,18R,21S,24R)-6,18-bis(4-((4-chloro-3,5-dimethyl-1H-pyrazol-1-yl)methyl)benzyl)-3,9,15,21-tetraisobutyl-4,10,12,16,22,24-hexamethyl-1,7,13,19-tetraoxa-4,10,16,22-tetraazacyclotetracosan-2,5,8,11,14,17,20,23-octaone], the minimal effective concentration in experiment [1] fell in the range of 0.0001 to 0.001 µM.
For `CC(C)C[C@H]1C(=O)O[C@H](Cc2ccc(Cn3ccnc3CO)cc2)C(=O)N(C)[C@@H](CC(C)C)C(=O)O[C@H](C)C(=O)N(C)[C@@H](CC(C)C)C(=O)O[C@H](Cc2ccccc2)C(=O)N(C)[C@@H](CC(C)C)C(=O)O[C@H](C)C(=O)N1C` [Example 8-13, (3S,6R,9S,12R,15S,18R,21S,24R)-6-benzyl-18-(4-((2-(hydroxymethyl)-1H-imidazol-1-yl)methyl)benzyl)-3,9,15,21-tetraisobutyl-4,10,12,16,22,24-hexamethyl-1,7,13,19-tetraoxa-4,10,16,22-tetraazacyclotetracosan-2,5,8,11,14,17,20,23-octaone], the minimal effective concentration in experiment [2] lay in the range of 0.001 to 0.01 µM; in experiment [3], 1 to 10 µM.
On to `CC(C)C[C@H]1C(=O)O[C@H](Cc2ccc(Cn3ccnn3)cc2)C(=O)N(C)[C@@H](CC(C)C)C(=O)O[C@H](C)C(=O)N(C)[C@@H](CC(C)C)C(=O)O[C@H](Cc2ccc(Cn3ccnn3)cc2)C(=O)N(C)[C@@H](CC(C)C)C(=O)O[C@H](C)C(=O)N1C` [Example 9-6, (3S,6R,9S,12R,15S,18R,21S,24R)-6,18-bis(4-((1H-1,2,3-triazol-1-yl)methyl)benzyl)-3,9,15,21-tetraisobutyl-4,10,12,16,22,24-hexamethyl-1,7,13,19-tetraoxa-4,10,16,22-tetraazacyclotetracosan-2,5,8,11,14,17,20,23-octaone], for which the minimal effective concentration in experiment [2] fell in the range of 0.001 to 0.01 µM; in experiment [3], 1 to 10 µM.
As for `CC(C)C[C@H]1C(=O)O[C@H](Cc2ccc(CN3C(=O)CCC3=O)cc2)C(=O)N(C)[C@@H](CC(C)C)C(=O)O[C@H](C)C(=O)N(C)[C@@H](CC(C)C)C(=O)O[C@H](Cc2ccc(CN3C(=O)CCC3=O)cc2)C(=O)N(C)[C@@H](CC(C)C)C(=O)O[C@H](C)C(=O)N1C` [Example 9-11, (3S,6R,9S,12R,15S,18R,21S,24R)-6,18-bis(4-((2,5-dioxopyrrolidin-1-yl)methyl)benzyl)-3,9,15,21-tetraisobutyl-4,10,12,16,22,24-hexamethyl-1,7,13,19-tetraoxa-4,10,16,22-tetraazacyclotetracosan-2,5,8,11,14,17,20,23-octaone], the minimal effective concentration in experiment [2] was 0.001 to 0.01 µM; in experiment [3], 1 to 10 µM.
Taken in the same sequence, the figures for `CC(C)C[C@H]1C(=O)O[C@H](Cc2ccc(Cn3ccccc3=O)cc2)C(=O)N(C)[C@@H](CC(C)C)C(=O)O[C@H](C)C(=O)N(C)[C@@H](CC(C)C)C(=O)O[C@H](Cc2ccc(Cn3ccccc3=O)cc2)C(=O)N(C)[C@@H](CC(C)C)C(=O)O[C@H](C)C(=O)N1C` [Example 9-28, (3S,6R,9S,12R,15S,18R,21S,24R)-3,9,15,21-tetraisobutyl-4,6,10,16,18,22-hexamethyl-12,24-bis(4-((2-oxopyridin-1 (2H)-yl)methyl)benzyl)-1,7,13,19-tetraoxa-4,10,16,22-tetraazacyclotetracosan-2,5,8,11,14,17,20,23-octaone] were 0.001 to 0.01 µM and 1 to 10 µM.
Regarding `CC(C)C[C@H]1C(=O)O[C@H](Cc2ccc(Cn3ncnc3-c3ccccc3)cc2)C(=O)N(C)[C@@H](CC(C)C)C(=O)O[C@H](C)C(=O)N(C)[C@@H](CC(C)C)C(=O)O[C@H](Cc2ccc(Cn3ncnc3-c3ccccc3)cc2)C(=O)N(C)[C@@H](CC(C)C)C(=O)O[C@H](C)C(=O)N1C` [Example 9-34, (3S,6R,9S,12R,15S,18R,21S,24R)-3,9,15,21-tetraisobutyl-4,6,10,16,18,22-hexamethyl-12,24-bis(4-((5-phenyl-1H-1,2,4-triazol-1-yl)methyl)benzyl)-1,7,13,19-tetraoxa-4,10,16,22-tetraazacyclotetracosan-2,5,8,11,14,17,20,23-octaone], the minimal effective concentration in experiment [2] lay in the range of 0.001 to 0.01 µM; in experiment [3] it was 1 to 10 µM.
With `CC(C)C[C@H]1C(=O)O[C@H](Cc2ccc(Cn3cc4c(n3)CCOC4)cc2)C(=O)N(C)[C@@H](CC(C)C)C(=O)O[C@H](C)C(=O)N(C)[C@@H](CC(C)C)C(=O)O[C@H](Cc2ccc(Cn3cc4c(n3)CCOC4)cc2)C(=O)N(C)[C@@H](CC(C)C)C(=O)O[C@H](C)C(=O)N1C` [Example 9-41, (3S,6R,9S,12R,15S,18R,21S,24R)-6,18-bis(4-((6,7-dihydropyrano[4,3-c]pyrazol-2(4H)-yl)methyl)benzyl)-3,9,15,21-tetraisobutyl-4,10,12,16,22,24-hexamethyl-1,7,13,19-tetraoxa-4,10,16,22-tetraazacyclotetracosan-2,5,8,11,14,17,20,23-octaone], the minimal effective concentration in experiment [2] lay within 0.001 to 0.01 µM; in experiment [3] it was 1 to 10 µM.
Take `Cc1nc(C2CC2)n(Cc2ccc(C[C@H]3OC(=O)[C@H](CC(C)C)N(C)C(=O)[C@@H](C)OC(=O)[C@H](CC(C)C)N(C)C(=O)[C@@H](Cc4ccc(Cn5nc(C)nc5C5CC5)cc4)OC(=O)[C@H](CC(C)C)N(C)C(=O)[C@@H](C)OC(=O)[C@H](CC(C)C)N(C)C3=O)cc2)n1` [Example 9-57, (3S,6R,9S,12R,15S,18R,21S,24R)-6,18-bis(4-((5-cyclopropyl-3-methyl-1H-1,2,4-triazol-1-yl)methyl)benzyl)-3,9,15,21-tetraisobutyl-4,10,12,16,22,24-hexamethyl-1,7,13,19-tetraoxa-4,10,16,22-tetraazacyclotetracosan-2,5,8,11,14,17,20,23-octaone]: the values for the minimal effective concentration in experiment [2] and in experiment [3] were 0.01 to 0.1 µM and 1 to 10 µM, respectively.
Turning to `CCc1nc(C)nn1Cc1ccc(C[C@H]2OC(=O)[C@H](CC(C)C)N(C)C(=O)[C@@H](C)OC(=O)[C@H](CC(C)C)N(C)C(=O)[C@@H](Cc3ccc(Cn4nc(C)nc4CC)cc3)OC(=O)[C@H](CC(C)C)N(C)C(=O)[C@@H](C)OC(=O)[C@H](CC(C)C)N(C)C2=O)cc1` [Example 9-59, (3S,6R,9S,12R,15S,18R,21S,24R)-6,18-bis(4-((5-ethyl-3-methyl-1H-1,2,4-triazol-1-yl)methyl)benzyl)-3,9,15,21-tetraisobutyl-4,10,12,16,22,24-hexamethyl-1,7,13,19-tetraoxa-4,10,16,22-tetraazacyclotetracosan-2,5,8,11,14,17,20,23-octaone], the minimal effective concentration in experiment [2] is 0.01 to 0.1 µM; in experiment [3], 1 to 10 µM.
With `CC(C)C[C@H]1C(=O)O[C@H](C)C(=O)N(C)[C@@H](CC(C)C)C(=O)O[C@H](Cc2ccccc2)C(=O)N(C)[C@@H](CC(C)C)C(=O)O[C@H](C)C(=O)N(C)[C@@H](CC(C)C)C(=O)O[C@@H](Cc2ccc(CN3CCC(F)(F)CC3)cc2)C(=O)N1C` [Example 10-3, (3S,6R,9S,12R,15S,18S,21S,24R)-6-benzyl-18-(4-((4,4-difluoropiperidin-1-yl)methyl)benzyl)-3,9,15,21-tetraisobutyl-4,10,12,16,22,24-hexamethyl-1,7,13,19-tetraoxa-4,10,16,22-tetraazacyclotetracosan-2,5,8,11,14,17,20,23-octaone], the minimal effective concentration in experiment [2] fell in the range of 0.01 to 0.1 µM; in experiment [3] it was 1 to 10 µM.
As for `CC(C)C[C@H]1C(=O)O[C@H](Cc2ccc(Cn3ccccc3=O)cc2)C(=O)N(C)[C@@H](CC(C)C)C(=O)O[C@H](C)C(=O)N(C)[C@@H](CC(C)C)C(=O)O[C@H](Cc2ccccc2)C(=O)N(C)[C@@H](CC(C)C)C(=O)O[C@H](C)C(=O)N1C` [Example 10-17, (3S,6R,9S,12R,15S,18R,21S,24R)-6-benzyl-3,9,15,21-tetraisobutyl-4,10,12,16,22,24-hexamethyl-18-(4-((2-oxopyridin-1 (2H)-yl)methyl)benzyl)-1,7,13,19-tetraoxa-4,10,16,22-tetraazacyclotetracosan-2,5,8,11,14,17,20,23-octaone], the minimal effective concentration in experiment [2] lay in the range of 0.001 to 0.01 µM; in experiment [3], 1 to 10 µM.
As for `CC(C)C[C@H]1C(=O)O[C@H](Cc2ccc(CN3CCOC3=O)cc2)C(=O)N(C)[C@@H](CC(C)C)C(=O)O[C@H](C)C(=O)N(C)[C@@H](CC(C)C)C(=O)O[C@H](Cc2ccccc2)C(=O)N(C)[C@@H](CC(C)C)C(=O)O[C@H](C)C(=O)N1C` [Example 10-18, (3S,6R,9S,12R,15S,18R,21S,24R)-6-benzyl-3,9,15,21-tetraisobutyl-4,10,12,16,22,24-hexamethyl-18-(4-((2-oxooxazolidin-3-yl)methyl)benzyl)-1,7,13,19-tetraoxa-4,10,16,22-tetraazacyclotetracosan-2,5,8,11,14,17,20,23-octaone], the figures for the minimal effective concentration in experiment [2] and in experiment [3] were 0.01 to 0.1 µM and 1 to 10 µM, respectively.
